Numbered stars: 1 amine (or outer) side, 2 acyl side, 3 side chain; on linkers, the order of the positions; unused ones are H or OH. Square brackets hold non-standard residues; d marks the D form. Ends that are not written are not given here. Peptide text beside a SMILES is read from it. * marks the point of attachment. Dolaproine = CO[C@@H]([C@@H]1CCCN1)[C@@H](C)C(=O)O; Propanoyl(3-maleimido) = O=C1C=CC(=O)N1CCC(=O)*; Dil = CC[C@H](C)[C@H](NC)[C@@H](CC(=O)O)OC; Gla = N[C@@H](CC(C(=O)O)C(=O)O)C(=O)O; PABC = O=C(OCc1ccc(N[*:1])cc1)[*:2]; X1 = C[C@@H](N*)[C@@H](O)c1ccccc1; Met(O) = CS(=O)CC[C@H](N)C(=O)O; Cit = NC(=O)NCCC[C@H](N)C(=O)O; NMeV = CN[C@H](C(=O)O)C(C)C; Aib = CC(C)(N)C(=O)O
Assays:
HPAFII cells = test: In vitro cytotoxicity of Ag1 ADCs (CellTiter-Glo, 96 h); type: cell-based; conditions: Tables 3a and 3b, in words
Procedure: In vitro cytotoxicity. The cytotoxicity of a tripeptide-based Antibody Drug Conjugate was measured by a cell proliferation assay employing the protocol described in Promega Corp. Technical Bulletin TB288; and Mendoza et al., 2002, Cancer Res. 62:5485-5488), the methods of which are specifically incorporated by reference herein. Briefly, an aliquot of 40 μl of cell culture containing about 400 cells in medium is deposited in each well of a 384-well, opaque-walled plate. A 10 μL aliquot of free drug or Ligand-Drug Conjugate is added to the experimental wells and incubated for 96 h and are then equilibrated to room temperature for approximately 30 minutes whereupon a volume of CellTiter-Glo™ reagent equal to the volume of cell culture medium present in each well is added. The contents are mixed for 2 minutes on an orbital shaker to induce cell lysis and the plate is incubated at room temperature for 10 minutes to stabilize the luminescence signal for recordation.
The italicized values in Tables 3, 3a, and 3b indicate the percentage of cells remaining after 96 hr incubation at the maximum concentration of drug added. For convenience the numbering for the library members of Tables 2 and 2A are retained for the corresponding Drug linker compounds that are incorporated into the ADC of Tables 3, 3a, and 3b.

[1] = tested on: CD30-expressing ALCL and HL cell lines (DEL, Karpas, KMH2, L428, L540cy); test: In vitro cytotoxicity study of cAC10 ADCs (CellTiter-Glo, 96 hours); type: cell-based; conditions: FIG. 39A-E
Procedure: ALCL and HL cell lines (DEL, DELBVR8F9, Karpas, KMH2, L428, AND L540cy) were plated in 150 uL complete growth media in 96-well, clear-bottomed, black-walled tissue culture treated plates (Corning). Cell plates were placed at 37° C. and 5% CO2 overnight to allow cells to equilibrate. The ADCs were thawed, and 4×8-point serial dilutions were prepared in RPMI-1640+10% fetal bovine serum (FBS). Fifty uL of each dilution were then added to each cell plate in triplicate. Treated cells were incubated at 37° C. and 5% CO2 for 96 hours. Cell viability was assayed using CellTiter-Glo® Reagent (PROMEGA). Raw data were analyzed in Graphpad Prism (San Diego, CA) using a nonlinear, 4-parameter curve fit model [Y=Bottom+(Top−Bottom)/(1+10^((Log EC50−X)*HillSlope))].

neutrophil elastase = target: T1, neutrophil elastase (Homo sapiens, UniProt P08246); test: Neutrophil elastase assay of 8-load ADCs (QToF MS); type: biochemical; conditions: 8-load ADC, 37 C, 3 h; FIG. 6A
T1 sequence (P08246 30-267): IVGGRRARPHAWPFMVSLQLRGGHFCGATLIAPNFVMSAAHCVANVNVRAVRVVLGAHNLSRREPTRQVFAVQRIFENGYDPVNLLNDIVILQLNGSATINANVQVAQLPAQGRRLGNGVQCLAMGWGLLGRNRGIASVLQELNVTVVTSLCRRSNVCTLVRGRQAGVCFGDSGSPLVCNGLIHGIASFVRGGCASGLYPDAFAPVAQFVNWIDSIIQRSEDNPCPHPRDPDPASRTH
Procedure: To a mixture of 8-load ADC (5 ug), buffer (100 mM tris, 75 mM NaCl, pH 7.5; final concentration), and neutrophil elastase (100 ng) was added water to 20 uL. The reaction was incubated at 37 C for 3 h and then immediately analyzed by a QToF mass spectrometer.

[2] = tested on: neutrophils and reticulocytes (bone marrow); test: In vivo bone marrow toxicity of non-binding h00 conjugates (neutrophil and reticulocyte counts, tolerability); conditions: rat, in words
From the text: Toxicity Determinations. Each tripeptide-based Drug Linker compound was reacted with a reduced non-binding antibody to provide a non-binding control ADC and injected i.v. into female Sprague Dawley rats at various concentrations. Animals were euthanized on day 4 or 28 post dose.
Having shown that ADC efficacy has been at least retained on replacing the dipeptide with most of the selected tripeptide sequences, differences in in vivo cytotoxicity against normal bone marrow tissue was explored by replacing the antibody targeting the Ag1 antigen with a non-binding control (h00) antibody. Each of the resulting non-targeting conjugates were then administered at 10 mg/Kg to rats, whose blood were analyzed at day 5 post-administration for neutrophil and reticulocyte counts as a proxy for bone marrow toxicity compared to sham treated animals. […]
A subset of non-targeting conjugates were administered at higher doses to rats to determine the impact on bone marrow depletion. Blood from the doses rats were analyzed at day 8 and day 22 post-administration for neutrophil (FIG. 2C) and reticulocyte (FIG. 3C) counts as a proxy for bone marrow toxicity compared to sham treated animals. […]

[3] = tested on: normal human bone marrow homogenate; test: Fluorescence assay: proteolysis of tripeptide library by normal tissue homogenate; type: biochemical; conditions: Table 1A, normalized fluorescence at final time point (275-315 min)
Procedure: (§1) Fluorescence assay. To a 384 well plate was added a mixture of tumor or normal tissue homogenate and citrate buffer (100 mM, pH 4.5; 9 μL) followed by a fluorescently labelled library compound (1 μL; dissolved in 50% MeCN). The reaction was incubated at 37° C. and fluorescence (330 nm excitation, 450 nm emission) was detected several times over a 6-hr. period. The fluorescence fold change was determined by dividing the fluorescence value at each time point with the background fluorescence when no homogenate was added.
Tissue Homogenization. Normal tissue or tumor tissue from mouse xenografts were suspended in buffer (50 mM Tris, 150 mM KCl, pH 7.0) and added to a tube containing Matrix D lysing beads (mpbio). The tissue was homogenized with a Precellys™ 24 homogenizer. The homogenized sample was centrifuged at 1000×g for 10 min and the resulting supernatant was collected then frozen at −80° C. until further use.
The normalized normal tissue fluorescence values are from proteolysis by normal human bone marrow.
That value was then normalized for each peptide in each homogenate by dividing it by the average value for that homogenate. […] The normalized normal tissue values of Table 1 were similarly calculated using homogenized bone marrow.

[4] = tested on: tumor tissue homogenates from HPAF-II, Ramos, SK-Mel-5 and SU-DHL-4 xenograft models; test: Fluorescence assay: proteolysis of tripeptide library by tumor tissue homogenate; type: biochemical, mouse; conditions: Table 1A; normalized fluorescence averaged across 4 tumor homogenates
Procedure: as §1
Tissue Homogenization. […]
The normalized fluorescence value for tumor homogenate proteolysis is an averaged value for tumor tissue homogenates derived from four mouse xenograft models.
That value was then normalized for each peptide in each homogenate by dividing it by the average value for that homogenate. […] The normalized tumor tissue values of Table 1 were then determined by averaging the normalized fluorescence value for each peptide across all 4 cancer homogenates that were tested. […] The normalized normal tissue values of Table 1 were similarly calculated using homogenized bone marrow. The Tumor/Normal ratios of Table 1A were determined by dividing the normalized tumor tissue values by the normalized normal tissue values.

Molecule: CC[C@H](C)[C@@H]([C@@H](CC(=O)N1CCC[C@H]1[C@H](OC)[C@@H](C)C(=O)N[C@H](C)[C@@H](O)c1ccccc1)OC)N(C)C(=O)[C@@H](NC(=O)[C@H](C(C)C)N(C)C(=O)OCc1ccc(NC(=O)[C@H](CCCNC(N)=O)NC(=O)[C@H](C)NC(=O)[C@@H](CC(C)C)NC(=O)CCN2C(=O)C=CC2=O)cc1)C(C)C [Compound 8] ({Propanoyl(3-maleimido)}-[dL]A[Cit][PABC][NMeV]V[Dil][Dolaproine]-X1)
- cytotoxicity relative to comparator dipeptide-based ADC (1) (HPAFII cells): less cytotoxic
- efficacy relative to comparator dipeptide-based ADC (1) (HPAFII cells): similarly efficacious

Molecule: CC[C@H](C)[C@@H]([C@@H](CC(=O)N1CCC[C@H]1[C@H](OC)[C@@H](C)C(=O)N[C@H](C)[C@@H](O)c1ccccc1)OC)N(C)C(=O)[C@@H](NC(=O)[C@H](C(C)C)N(C)C(=O)OCc1ccc(NC(=O)[C@H](CCC(=O)O)NC(=O)[C@H](C)NC(=O)[C@@H](C)NC(=O)CCN2C(=O)C=CC2=O)cc1)C(C)C [Compound 22] ({Propanoyl(3-maleimido)}-[dA]AE[PABC][NMeV]V[Dil][Dolaproine]-X1)
- cytotoxicity relative to comparator dipeptide-based ADC (1) (HPAFII cells): less cytotoxic
- efficacy relative to comparator dipeptide-based ADC (1) (HPAFII cells): similarly efficacious

Molecule: CC[C@H](C)[C@@H]([C@@H](CC(=O)N1CCC[C@H]1[C@H](OC)[C@@H](C)C(=O)N[C@H](C)[C@@H](O)c1ccccc1)OC)N(C)C(=O)[C@@H](NC(=O)[C@H](C(C)C)N(C)C(=O)OCc1ccc(NC(=O)[C@H](CC(=O)O)NC(=O)[C@H](C)NC(=O)[C@@H](CC(C)C)NC(=O)CCN2C(=O)C=CC2=O)cc1)C(C)C [Compound 24] ({Propanoyl(3-maleimido)}-[dL]AD[PABC][NMeV]V[Dil][Dolaproine]-X1)
- cytotoxicity relative to comparator dipeptide-based ADC (1) (HPAFII cells): less cytotoxic
- efficacy relative to comparator dipeptide-based ADC (1) (HPAFII cells): similarly efficacious

Molecule: CC[C@H](C)[C@@H]([C@@H](CC(=O)N1CCC[C@H]1[C@H](OC)[C@@H](C)C(=O)N[C@H](C)[C@@H](O)c1ccccc1)OC)N(C)C(=O)[C@@H](NC(=O)[C@H](C(C)C)N(C)C(=O)OCc1ccc(NC(=O)[C@H](CC(C(=O)O)C(=O)O)NC(=O)[C@H](C)NC(=O)[C@@H](CC(C)C)NC(=O)CCN2C(=O)C=CC2=O)cc1)C(C)C [Compound 26] ({Propanoyl(3-maleimido)}-[dL]A[Gla][PABC][NMeV]V[Dil][Dolaproine]-X1)
- cytotoxicity relative to comparator dipeptide-based ADC (1) (HPAFII cells): less cytotoxic
- efficacy relative to comparator dipeptide-based ADC (1) (HPAFII cells): similarly efficacious

Molecule: CC[C@H](C)[C@@H]([C@@H](CC(=O)N1CCC[C@H]1[C@H](OC)[C@@H](C)C(=O)N[C@H](C)[C@@H](O)c1ccccc1)OC)N(C)C(=O)[C@@H](NC(=O)[C@H](C(C)C)N(C)C(=O)OCc1ccc(NC(=O)[C@H](CCC(=O)O)NC(=O)[C@H](CO)NC(=O)[C@H](Cc2ccccc2)NC(=O)CCN2C(=O)C=CC2=O)cc1)C(C)C [Compound 30] ({Propanoyl(3-maleimido)}-FSE[PABC][NMeV]V[Dil][Dolaproine]-X1)
- cytotoxicity relative to comparator dipeptide-based ADC (1) (HPAFII cells): less cytotoxic
- efficacy relative to comparator dipeptide-based ADC (1) (HPAFII cells): similarly efficacious

Molecule: CC[C@H](C)[C@@H]([C@@H](CC(=O)N1CCC[C@H]1[C@H](OC)[C@@H](C)C(=O)N[C@H](C)[C@@H](O)c1ccccc1)OC)N(C)C(=O)[C@@H](NC(=O)[C@@H](NC)C(C)C)C(C)C [SGN-1010, MMAE] (H-[NMeV]V[Dil][Dolaproine]-X1)
- cytotoxic activity (cell viability) [1]: all cell lines are sensitive

Molecule: CC[C@H](C)[C@@H]([C@@H](CC(=O)N1CCC[C@H]1[C@H](OC)[C@@H](C)C(=O)N[C@H](C)[C@@H](O)c1ccccc1)OC)N(C)C(=O)[C@@H](NC(=O)[C@H](C(C)C)N(C)C(=O)OCc1ccc(NC(=O)[C@H](CCC(=O)O)NC(=O)[C@H](C)NC(=O)[C@@H](CC(C)C)NC(=O)CCN2C(=O)C=CC2=O)cc1)C(C)C [compound 5, mp-dLAE-PABC-MMAE] ({Propanoyl(3-maleimido)}-[dL]AE[PABC][NMeV]V[Dil][Dolaproine]-X1)
- percentage of drug cleaved from the heavy chain by neutrophil elastase (neutrophil elastase): lower than that found for non-targeted ADC 37

Molecule: CC[C@H](C)[C@@H]([C@@H](CC(=O)N1CCC[C@H]1[C@H](OC)[C@@H](C)C(=O)N[C@H](C)[C@@H](O)c1ccccc1)OC)N(C)C(=O)[C@@H](NC(=O)[C@H](C(C)C)N(C)C(=O)OCc1ccc(NC(=O)[C@H](CCC(=O)O)NC(=O)C(C)(C)NC(=O)[C@@H](CC(C)C)NC(=O)CCN2C(=O)C=CC2=O)cc1)C(C)C [compound 38] ({Propanoyl(3-maleimido)}-[dL][Aib]E[PABC][NMeV]V[Dil][Dolaproine]-X1)
- toxicity to bone marrow [2]: less toxic to rat bone marrow
- cytotoxicity relative to comparator dipeptide-based ADC (1) (HPAFII cells): less cytotoxic
- efficacy relative to comparator dipeptide-based ADC (1) (HPAFII cells): less cytotoxic and efficacious

Molecule: [dL]-Leu-[Met(O)] [DLeu-Leu-Met(O)]
- Normalized Normal Tissue [3]: 0.66
- Normalized Tumor Tissue [4]: 1.70
